Measured values taken from patent publication US20170312681A1, “PROCESS AND APPARATUS FOR SEPARATING ENTRAINED AMINES FROM A GAS STREAM” (Carbonoro B.V., priority 2014, published 2017).

Experiment: amine content of the aqueous phase after heat-induced phase separation of an aqueous MCA/DMCA mixture
Details: 3 M MCA:DMCA 1:3 wt./wt. in water
Protocol: The phases were separated and the aqueous phase was analysed for determining the amine content.

Structure (SMILES): CNC1CCCCC1 [MCA, N-methylcyclohexylamine]
- MCA in aqueous phase (heated 24 h at 40 ° C.): 6940 mg/L
- MCA in aqueous phase (heated 24 h at 50 ° C.): 5630 mg/L
- MCA in aqueous phase (heated 24 h at 60 ° C.): 5090 mg/L
- MCA in aqueous phase (heated 24 h at 70 ° C.): 4520 mg/L
